Paper PMC6709486, “Safety, Tolerability, Pharmacokinetics, and Drug Interaction Potential of SPR741, an Intravenous Potentiator, after Single and Multiple Ascending Doses and When Combined with β-Lactam Antibiotics in Healthy Subjects” (Antimicrobial Agents and Chemotherapy, 2019)
Peptide text beside a SMILES is read from it.

Key:
[1] = MAD phase safety and tolerability; assay type: in vivo, human
From the text: The SAD/MAD study was a phase 1, double-blind, placebo-controlled, multicohort trial. Part 1 used a SAD design according to which subjects received a single i.v. dose of SPR741. Part 2 used a MAD design in which subjects received multiple daily i.v. doses of SPR741 over a period of 14 days. The objective was to assess the safety/tolerability and PK of single and multiple ascending doses of SPR741.
In the SAD phase, healthy volunteers were screened within 28 days prior to dosing. Subjects were admitted to the clinical facility on day −1 for up to 3 days. A single dose of SPR741 (or placebo) was administered on day 1. Following completion of all safety assessments and sampling for PK analyses, subjects were discharged on day 2. A follow-up visit occurred 5 to 7 days after day 1 dosing. In the MAD phase, all subjects were admitted to the clinical facility on day −1. Dosing commenced on the morning of day 1. Three doses were administered daily at approximately 8 (±0.5)-h intervals for a total of 14 consecutive days. The last dose was administered on the morning of day 14. Blood and urine samples were collected for assessment of PK parameters. Subjects were discharged on day 16 following completion of all PK sample collection and safety assessments, and a follow-up visit occurred 5 to 7 days after the last dose.
The MAD phase of the study began after safety and tolerability were confirmed in cohort 5, and the appropriate dose level was established. Two subjects received placebo, and six subjects received SPR741 doses of 50, 150, 400 or 600 mg q8h for 14 days. In the first cohort of the MAD phase (50 mg q8h), two subjects (sentinels) began dosing with SPR741 or placebo 72 h prior to dosing of the remaining subjects in this cohort. The remaining six subjects were dosed only after no safety concerns were identified by the Safety Monitoring Group at 72 h. After each MAD dose cohort had completed administration of study drug and all evaluations, the Safety Monitoring Group reviewed blinded cumulative safety data (including the day 19 to 21 follow-up data) to confirm the safety and tolerability of study drug.
For both studies, safety assessments included clinical laboratory testing (hematology, coagulation, serum chemistry, renal chemistry, and urinalysis), vital signs (blood pressure, heart rate, body temperature, and respiratory rate), physical examination, and triplicate 12-lead ECGs. […] Adverse events were recorded at each study visit.

[2] = clinical; settings: human, in vivo, iv
From the text: The SAD/MAD study was a phase 1, double-blind, placebo-controlled, multicohort trial. Part 1 used a SAD design according to which subjects received a single i.v. dose of SPR741. Part 2 used a MAD design in which subjects received multiple daily i.v. doses of SPR741 over a period of 14 days. The objective was to assess the safety/tolerability and PK of single and multiple ascending doses of SPR741. In the SAD phase, healthy volunteers were screened within 28 days prior to dosing. Subjects were admitted to the clinical facility on day −1 for up to 3 days. A single dose of SPR741 (or placebo) was administered on day 1. Following completion of all safety assessments and sampling for PK analyses, subjects were discharged on day 2. A follow-up visit occurred 5 to 7 days after day 1 dosing. In the MAD phase, all subjects were admitted to the clinical facility on day −1. Dosing commenced on the morning of day 1. Three doses were administered daily at approximately 8 (±0.5)-h intervals for a total of 14 consecutive days. The last dose was administered on the morning of day 14. Blood and urine samples were collected for assessment of PK parameters. Subjects were discharged on day 16 following completion of all PK sample collection and safety assessments, and a follow-up visit occurred 5 to 7 days after the last dose. The MAD phase of the study began after safety and tolerability were confirmed in cohort 5, and the appropriate dose level was established. Two subjects received placebo, and six subjects received SPR741 doses of 50, 150, 400 or 600 mg q8h for 14 days. In the first cohort of the MAD phase (50 mg q8h), two subjects (sentinels) began dosing with SPR741 or placebo 72 h prior to dosing of the remaining subjects in this cohort. The remaining six subjects were dosed only after no safety concerns were identified by the Safety Monitoring Group at 72 h. […]

CC(=O)N[C@H](C(=O)N[C@H](CO)C(=O)N[C@H]1CCNC(=O)[C@H]([C@@H](C)O)NC(=O)[C@H](CCN)NC(=O)[C@H](CCN)NC(=O)[C@H](CC(C)C)NC(=O)[C@@H](Cc2ccccc2)NC(=O)[C@H](CCN)NC1=O)[C@@H](C)O [SPR741] (HELM PEPTIDE1{[ac].T.[dS].[Dab].[Dab].[dF].L.[Dab].[Dab].T}$PEPTIDE1,PEPTIDE1,4:R3-10:R2$$$V2.0)
deaths or severe TEAEs ([1]; MAD): No deaths or severe TEAEs occurred
Abdominal pain: No. (%) of subjects ([1]; in vivo): 2 (8)
Abdominal pain: No. of events ([1]; in vivo): 2
All systemic TEAEs: No. (%) of subjects ([1]; in vivo): 24 (100)
All systemic TEAEs: No. of events ([1]; in vivo): 178
Arthralgia: No. (%) of subjects ([1]; in vivo): 2 (8)
Arthralgia: No. of events ([1]; in vivo): 3
Back pain: No. (%) of subjects ([1]; in vivo): 2 (8)
Back pain: No. of events ([1]; in vivo): 2
Chest discomfort: No. (%) of subjects ([1]; in vivo): 2 (8)
Chest discomfort: No. of events ([1]; in vivo): 2
Contusion: No. (%) of subjects ([1]; in vivo): 2 (8)
Contusion: No. of events ([1]; in vivo): 2
CrCl on day 16 ([1]; in vivo): 65 mL/min
Creatinine clearance decrease: No. of events ([1]; in vivo): 6
Dermatitis contact: No. of events ([1]; in vivo): 7
Diarrhea: No. of events ([1]; in vivo): 3
Dysesthesia: No. (%) of subjects ([1]; in vivo): 2 (8)
Dysesthesia: No. of events ([1]; in vivo): 2
Headache: No. of events ([1]; in vivo): 8
Nausea: No. (%) of subjects ([1]; in vivo): 2 (8)
Nausea: No. of events ([1]; in vivo): 2
Rhinitis: No. (%) of subjects ([1]; in vivo): 2 (8)
Rhinitis: No. of events ([1]; in vivo): 2
catheter site erythema related to the PK cannula ([1]; in vivo): 13%
catheter site pain related to the PK cannula ([1]; in vivo): 25%
decline in CrCl ([1]; in vivo): 50%
infusion site phlebitis, SPR741 subjects ([1]; in vivo): 3
infusion site thrombosis, SPR741 subjects ([1]; in vivo): 2
serious AE of atrial fibrillation, probably related to treatment, withdrawn ([1]; in vivo): One subject
infusion site reactions (site bruising, erythema, pain, phlebitis, swelling), total number ([1]; in vivo, iv): 81
Tmax [2]: 1 h
clearance ([2]; CL): 89 mL/min
half-life ([2]; mean (apparent terminal elimination) half-life, day 1): 132 min
